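GI50 = concentration required for 50% inhibition of growth. TGI: total growth inhibition.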
What was measured:
Assay in all cases: NCI-60 cell line screen, 384-well format
NCI-H522 lung = tested on: NCI-H522 lung
U251 glioblastoma = tested on: U251 glioblastoma
SNB-19 CNS = tested on: SNB-19 CNS
OVCAR-3 ovarian = tested on: OVCAR-3 ovarian
SF-295 CNS = tested on: SF-295 CNS
HCT-15 colon = tested on: HCT-15 colon
K-562 leukemia = tested on: K-562 leukemia
TK-10 renal = tested on: TK-10 renal
SK-MEL-28 melanoma = tested on: SK-MEL-28 melanoma
HT29 colon = tested on: HT29 colon
MDA-MB-468 breast = tested on: MDA-MB-468 breast
RPMI-8226 leukemia = tested on: RPMI-8226 leukemia
HCT-116 colon = tested on: HCT-116 colon
A498 renal = tested on: A498 renal
RXF 393 renal = tested on: RXF 393 renal
HS 578T breast = tested on: HS 578T breast
HL-60(TB) leukemia = tested on: HL-60(TB) leukemia
SN12C renal = tested on: SN12C renal
DU-145 prostate = tested on: DU-145 prostate
CAKI-1 renal = tested on: CAKI-1 renal
ACHN renal = tested on: ACHN renal
A549 NSCLC = tested on: A549 NSCLC
MCF7 breast = tested on: MCF7 breast
SK-MEL-2 melanoma = tested on: SK-MEL-2 melanoma
MDA-MB-435 melanoma = tested on: MDA-MB-435 melanoma
SF-539 CNS = tested on: SF-539 CNS
SF-268 CNS = tested on: SF-268 CNS
CCRF-CEM leukemia = tested on: CCRF-CEM leukemia
T-47D breast = tested on: T-47D breast
M14 melanoma = tested on: M14 melanoma
UO-31 renal = tested on: UO-31 renal
SK-MEL-5 melanoma = tested on: SK-MEL-5 melanoma
BT-549 breast = tested on: BT-549 breast
SW-620 colon = tested on: SW-620 colon
NCI-H226 lung = tested on: NCI-H226 lung
OVCAR-4 ovarian = tested on: OVCAR-4 ovarian
LOX IMVI melanoma = tested on: LOX IMVI melanoma
NCI-H322M lung = tested on: NCI-H322M lung
HCC-2998 colon = tested on: HCC-2998 colon
NCI-H23 lung = tested on: NCI-H23 lung
HOP-92 NSCLC = tested on: HOP-92 NSCLC
MOLT-4 leukemia = tested on: MOLT-4 leukemia
COLO 205 colon = tested on: COLO 205 colon
PC-3 prostate = tested on: PC-3 prostate
UACC-257 melanoma = tested on: UACC-257 melanoma
OVCAR-5 ovarian = tested on: OVCAR-5 ovarian
HOP-62 NSCLC = tested on: HOP-62 NSCLC
OVCAR-8 ovarian = tested on: OVCAR-8 ovarian
SR leukemia = tested on: SR leukemia
786-0 renal = tested on: 786-0 renal
KM12 colon = tested on: KM12 colon
NCI/ADR-RES ovarian = tested on: NCI/ADR-RES ovarian
UACC-62 melanoma = tested on: UACC-62 melanoma
NCI-H460 NSCLC = tested on: NCI-H460 NSCLC
MALME-3M melanoma = tested on: MALME-3M melanoma
IGROV1 ovarian = tested on: IGROV1 ovarian
EKVX NSCLC = tested on: EKVX NSCLC
SNB-75 CNS = tested on: SNB-75 CNS
MDA-MB-231 breast = tested on: MDA-MB-231 breast
SK-OV-3 ovarian = tested on: SK-OV-3 ovarian

Cn1cc(-c2ccc(-c3ccc(C4=NC5(CC5)C(=O)N4C[C@@H]4CCN(C(=O)C5CC5)C4)cc3)cc2)cn1
GI50 (NCI-H522 lung): 12.6 µM | TGI (NCI-H522 lung): 29.6 µM | GI50 (U251 glioblastoma): 10.2 µM | TGI (U251 glioblastoma): 38.1 µM | GI50 (SNB-19 CNS): 26.4 µM | TGI (SNB-19 CNS): > 90.1 µM | GI50 (OVCAR-3 ovarian): 13.5 µM | TGI (OVCAR-3 ovarian): 31.2 µM | GI50 (SF-295 CNS): 14.3 µM | TGI (SF-295 CNS): > 81.6 µM | GI50 (HCT-15 colon): 5.68 µM | TGI (HCT-15 colon): > 62.9 µM | GI50 (K-562 leukemia): 6.43 µM | TGI (K-562 leukemia): > 95.4 µM | GI50 (TK-10 renal): 27.5 µM | TGI (TK-10 renal): > 100 µM | GI50 (SK-MEL-28 melanoma): 27.8 µM | TGI (SK-MEL-28 melanoma): > 74.8 µM | GI50 (HT29 colon): 28.1 µM | TGI (HT29 colon): > 100 µM | GI50 (MDA-MB-468 breast): 15.8 µM | TGI (MDA-MB-468 breast): 38.4 µM | TGI (RPMI-8226 leukemia): 9.91 µM | GI50 (HCT-116 colon): 4.95 µM | TGI (HCT-116 colon): 27.6 µM | GI50 (A498 renal): 17.6 µM | TGI (A498 renal): > 56.1 µM | GI50 (RXF 393 renal): 14.4 µM | TGI (RXF 393 renal): 40.7 µM | GI50 (HS 578T breast): 10.5 µM | TGI (HS 578T breast): 39.1 µM | GI50 (HL-60(TB) leukemia): 0.0689 µM | TGI (HL-60(TB) leukemia): 16.3 µM | GI50 (SN12C renal): 17.1 µM | TGI (SN12C renal): 83.8 µM | GI50 (DU-145 prostate): 14.6 µM | TGI (DU-145 prostate): 59.6 µM | GI50 (CAKI-1 renal): 1.99 µM | GI50 (ACHN renal): 18.7 µM | TGI (ACHN renal): > 90.1 µM | GI50 (A549 NSCLC): 20.2 µM | TGI (A549 NSCLC): > 100 µM | GI50 (MCF7 breast): 3.21 µM | TGI (MCF7 breast): > 100 µM | GI50 (SK-MEL-2 melanoma): 21.9 µM | TGI (SK-MEL-2 melanoma): 41.8 µM | GI50 (MDA-MB-435 melanoma): 16.1 µM | TGI (MDA-MB-435 melanoma): 41.4 µM | GI50 (SF-539 CNS): 13.7 µM | TGI (SF-539 CNS): > 56.4 µM | GI50 (SF-268 CNS): 18.4 µM | TGI (SF-268 CNS): > 88.4 µM | GI50 (CCRF-CEM leukemia): 11.7 µM | TGI (CCRF-CEM leukemia): 24.3 µM | GI50 (T-47D breast): 11.9 µM | TGI (T-47D breast): 43.9 µM | GI50 (M14 melanoma): 24.7 µM | TGI (M14 melanoma): > 79.5 µM | GI50 (UO-31 renal): 1.06 µM | TGI (UO-31 renal): 2.43 µM | GI50 (SK-MEL-5 melanoma): 15.5 µM | TGI (SK-MEL-5 melanoma): 37 µM | GI50 (BT-549 breast): 0.827 µM | TGI (BT-549 breast): 30.1 µM | GI50 (SW-620 colon): 19.4 µM | TGI (SW-620 colon): > 67.9 µM | GI50 (NCI-H226 lung): 19 µM | TGI (NCI-H226 lung): 97.2 µM | GI50 (OVCAR-4 ovarian): 8.64 µM | TGI (OVCAR-4 ovarian): 59.1 µM | GI50 (LOX IMVI melanoma): 2.48 µM | TGI (LOX IMVI melanoma): 14 µM | GI50 (NCI-H322M lung): 20 µM | TGI (NCI-H322M lung): 75.5 µM | GI50 (HCC-2998 colon): 23.7 µM | TGI (HCC-2998 colon): > 79.9 µM | GI50 (NCI-H23 lung): 14.9 µM | TGI (NCI-H23 lung): 37.7 µM | GI50 (HOP-92 NSCLC): 21.2 µM | TGI (HOP-92 NSCLC): 59.1 µM | GI50 (MOLT-4 leukemia): 11 µM | TGI (MOLT-4 leukemia): 23.2 µM | GI50 (COLO 205 colon): 25.7 µM | TGI (COLO 205 colon): > 100 µM | GI50 (PC-3 prostate): 20.4 µM | TGI (PC-3 prostate): 49 µM | GI50 (UACC-257 melanoma): 38.4 µM | TGI (UACC-257 melanoma): > 74.7 µM | GI50 (OVCAR-5 ovarian): 23.4 µM | TGI (OVCAR-5 ovarian): > 100 µM | GI50 (HOP-62 NSCLC): 8.82 µM | TGI (HOP-62 NSCLC): 26.4 µM | GI50 (OVCAR-8 ovarian): 13.4 µM | TGI (OVCAR-8 ovarian): 41.6 µM | GI50 (SR leukemia): 0.0145 µM | TGI (SR leukemia): 0.0828 µM | GI50 ([…]-0 renal): 12.8 µM | TGI (786-0 renal): 31.8 µM | GI50 (KM12 colon): 6.95 µM | TGI (KM12 colon): > 100 µM | GI50 (NCI/ADR-RES ovarian): 14.2 µM | TGI (NCI/ADR-RES ovarian): 36.2 µM | GI50 (UACC-62 melanoma): 8.91 µM | TGI (UACC-62 melanoma): 22.5 µM | GI50 (NCI-H460 NSCLC): 1.21 µM | TGI (NCI-H460 NSCLC): 2.97 µM | GI50 (MALME-3M melanoma): 23 µM | TGI (MALME-3M melanoma): 65.1 µM | GI50 (IGROV1 ovarian): 25.6 µM | TGI (IGROV1 ovarian): > 100 µM | GI50 (EKVX NSCLC): 33.3 µM | TGI (EKVX NSCLC): 98.2 µM | GI50 (SNB-75 CNS): 21.5 µM | TGI (SNB-75 CNS): > 87.7 µM | GI50 (MDA-MB-231 breast): 12.3 µM | TGI (MDA-MB-231 breast): 56.1 µM | GI50 (SK-OV-3 ovarian): 30 µM | TGI (SK-OV-3 ovarian): > 89.9 µM

— PubChem BioAssay (NCI)
